Assay results taken from patent US7585871B2, “Phenanthridine carbonyl phenols” (Wyeth, priority 2004, dated 2009).

Tests used:
human ERα [1] = biological target: T1, human ERα (Homo sapiens, UniProt P03372); experiment: IL-6 luciferase (IL6-luc) assay in ERα infected HAECT-1 cells; type: cell-based; details: for IC50: ERα infected HAECT-1 cells, IL-1β, Ad5-IL-6(1250 bp).Luc virus, 15-20 h; for IL6-luc (% E2): efficacy relative to E2, value in parentheses after the IC50
T1 construct: expressed in transfected cells; host or cells: HAECT-1 cells (immortalized human aortic endothelial cells) infected with Ad5-wt-hERα adenovirus
T1 sequence (P03372 1-595): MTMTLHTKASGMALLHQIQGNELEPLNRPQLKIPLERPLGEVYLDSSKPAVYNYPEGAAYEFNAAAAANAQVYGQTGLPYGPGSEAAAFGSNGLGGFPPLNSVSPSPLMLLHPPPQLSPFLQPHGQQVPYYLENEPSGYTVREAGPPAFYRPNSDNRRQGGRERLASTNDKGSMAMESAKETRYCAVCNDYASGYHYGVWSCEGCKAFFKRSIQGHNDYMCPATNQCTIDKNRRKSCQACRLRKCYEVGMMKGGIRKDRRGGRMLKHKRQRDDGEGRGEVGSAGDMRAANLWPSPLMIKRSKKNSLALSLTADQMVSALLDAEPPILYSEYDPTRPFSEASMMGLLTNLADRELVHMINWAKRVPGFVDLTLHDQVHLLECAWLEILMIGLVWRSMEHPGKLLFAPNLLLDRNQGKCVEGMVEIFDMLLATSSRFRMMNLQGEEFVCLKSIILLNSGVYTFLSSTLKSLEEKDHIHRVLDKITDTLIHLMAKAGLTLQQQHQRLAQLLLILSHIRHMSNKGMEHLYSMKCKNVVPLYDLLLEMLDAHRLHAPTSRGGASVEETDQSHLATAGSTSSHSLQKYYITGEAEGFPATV
Description: (§1) After four hours, cells were washed with EBM-BSA and incubated overnight in the same medium. Following overnight incubation, cells were washed with EBM-BSA and infected for 2 hours with 6 ml of a 1:10 dilution of Ad5-3x(NFκB).Luc virus (Adenovirus luciferase expression vector driven by 3 repeats of the MHC NFκb site 5′ to the thymidine kinase promoter) in EBM-BSA. After two hours, cells were washed and incubated at 34° C. for 1 hour. […] Control (no ER infection) cells were processed as above without Ad5-wt-hERα virus infection.
(§2) ERα infected HAECT-1 cells or control cells were thawed, diluted 42× in warm EBM-BSA, plated into 96-well plates at 0.1 ml/well and incubated for 4 h at 34° C. […] After 15-20 h, cells are lysed with 50 ul of Promega Cell Culture Lysis reagent for ˜5 min at room temp on shaker. After lysing, 15 ul of lysate is transferred to luminometer plates for luciferase determination. […] Creatine kinase was determined from the rate of increase in A340 following addition of 100 uL of CK assay reagent (Sigma, cat. No 47-10) to the remainder of the cell lysate.
(§3) For IC50 and EC50 calculations, mean IL-6, luciferase or CK values versus log10 of the compound concentration were fitted to a four parameter logistic equation. The IC50/EC50 value, ‘Hill slope’, upper and lower limits of the curve were iteratively estimated.

human ERα [2] = biological target: T1, human ERα; experiment: Creatine kinase (CK) assay in ERα infected HAECT-1 cells; type: cell-based; details: for EC50: creatine kinase in lysate of ERα infected HAECT-1 cells; for CK (% E2): efficacy relative to E2, value in parentheses after the EC50
Description: as §1, §2, §3

SMILES | melting point [°C] | IC50 (human ERα [1]) [nM] | IL6-luc (% E2) (human ERα [1]) [%] | EC50 (human ERα [2]) [nM] | CK (% E2) (human ERα [2]) [%]
CCC1c2cc(F)ccc2-c2ccccc2N1C(=O)c1ccc(O)cc1F (racemic) [Example 23, 4-[(6-ethyl-8-fluorophenanthridin-5(6H)-yl)carbonyl]-3-fluorophenol] | 109 to 111 | 1 | 107 | – | –
CC1c2ccccc2-c2ccc(Cl)cc2N1C(=O)c1cccc(O)c1 (racemic) [Example 24, 3-[(3-chloro-6-methylphenanthridin-5(6H)-yl)carbonyl]phenol] | 176.2 to 177.9 | – | – | – | –
CC1c2ccccc2-c2ccc(Cl)cc2N1C(=O)c1ccc(O)cc1 (racemic) [Example 27, 4-[(3-chloro-6-methylphenanthridin-5(6H)-yl)carbonyl]phenol] | 165 to 165.9 | – | – | – | –
CC1c2ccccc2-c2ccc(F)cc2N1C(=O)c1cccc(O)c1 (racemic) [Example 33, 3-[(3-fluoro-6-methylphenanthridin-5(6H)-yl)carbonyl]phenol] | 163.9 to 165 | – | – | – | –
CC1c2ccccc2-c2ccc(F)cc2N1C(=O)c1ccc(O)cc1 (racemic) [Example 36, 4-[(3-fluoro-6-methylphenanthridin-5(6H)-yl)carbonyl]phenol] | 134.5 to 135 | – | – | – | –
C[C@@H]1c2ccccc2-c2ccc(F)cc2N1C(=O)c1cccc(O)c1 (single isomer, unassigned) [Example 34] | – | 11 | 188 | – | –
C[C@H]1c2ccccc2-c2ccc(F)cc2N1C(=O)c1ccc(O)cc1 (single isomer, unassigned) [Example 38] | 236.6 to 237.8 | – | – | – | –
C[C@H]1c2ccccc2-c2ccc(F)cc2N1C(=O)c1ccc(O)cc1O (single isomer, unassigned) [Example 41] | 182 to 184 | 272 | 88 | – | –
C[C@@H]1c2cc(F)ccc2-c2ccc(F)cc2N1C(=O)c1ccc(O)cc1 (single isomer, unassigned) [Example 43] | 138 to 140 | 1.5 | 147 | – | –
C[C@H]1c2cc(F)ccc2-c2ccc(F)cc2N1C(=O)c1ccc(O)cc1 (single isomer, unassigned) [Example 44] | 135 to 138 | 130 | 132 | – | –
C[C@@H]1c2cc(F)ccc2-c2ccccc2N1C(=O)c1ccc(O)cc1 [Example 1, 4-{[(6R)-8-fluoro-6-methylphenanthridin-5(6H)-yl]carbonyl}phenol] | – | 5 | 100 | – | –
C[C@H]1c2cc(F)ccc2-c2ccccc2N1C(=O)c1cccc(O)c1 [Example 2, 3-{[(6S)-8-fluoro-6-methylphenanthridin-5(6H)-yl]carbonyl}phenol] | – | 38 | 53 | – | –
C[C@H]1c2cc(F)ccc2-c2ccccc2N1C(=O)c1ccc(O)cc1 [Example 3, 4-{[(6S)-8-fluoro-6-methylphenanthridin-5(6H)-yl]carbonyl}phenol] | – | 414 | 114 | – | –
C[C@@H]1c2cc(F)ccc2-c2ccccc2N1C(=O)c1cccc(O)c1 [Example 4, 3-{[(6R)-8-fluoro-6-methylphenanthridin-5(6H)-yl]carbonyl}phenol] | 162 | 47 | 102 | – | –
C[C@@H]1c2cc(F)ccc2-c2ccccc2N1C(=O)c1ccc(O)cc1F [Example 5, 3-fluoro-4-{[(6R)-8-fluoro-6-methylphenanthridin-5(6H)-yl]carbonyl}phenol] | – | 9 | 97 | – | –
C[C@H]1c2cc(F)ccc2-c2ccccc2N1C(=O)c1ccc(O)cc1F [Example 6, 3-fluoro-4-{[(6S)-8-fluoro-6-methylphenanthridin-5(6H)-yl]carbonyl}phenol] | – | 403 | 90 | – | –

SMILES | melting point [°C] | IC50 (human ERα [1]) [nM] | IL6-luc (% E2) (human ERα [1]) [%] | EC50 (human ERα [2]) [nM] | CK (% E2) (human ERα [2]) [%]
C[C@@H]1c2cc(F)ccc2-c2ccccc2N1C(=O)c1cc(O)ccc1F [Example 7, 4-fluoro-3-{[(6R)-8-fluoro-6-methylphenanthridin-5(6H)-yl]carbonyl}phenol] | – | 263 | 70 | – | –
C[C@@H]1c2cc(F)ccc2-c2ccccc2N1C(=O)c1ccc(O)c(F)c1 [Example 9, 2-fluoro-4-{[(6R)-8-fluoro-6-methylphenanthridin-5(6H)-yl]carbonyl}phenol] | – | 31 | 81 | – | –
C[C@H]1c2cc(F)ccc2-c2ccccc2N1C(=O)c1ccc(O)c(F)c1 [Example 10, 2-fluoro-4-{[(6S)-8-fluoro-6-methylphenanthridin-5(6H)-yl]carbonyl}phenol] | – | 1470 | 68 | – | –
C[C@@H]1c2cc(F)ccc2-c2ccccc2N1C(=O)c1ccc(Cl)c(O)c1 [Example 11, 2-chloro-5-{[(6R)-8-fluoro-6-methylphenanthridin-5(6H)-yl]carbonyl}phenol] | – | 271 | 107 | 307 | −29
C[C@@H]1c2cc(F)ccc2-c2ccccc2N1C(=O)c1ccc(O)c(Br)c1 [Example 13, 2-bromo-4-{[(6R)-8-fluoro-6-methylphenanthridin-5(6H)-yl]carbonyl}phenol] | – | 51 | 102 | – | –
C[C@@H]1c2cc(F)ccc2-c2ccccc2N1C(=O)c1cc(O)ccc1Br [Example 15, 4-bromo-3-{[(6R)-8-fluoro-6-methylphenanthridin-5(6H)-yl]carbonyl}phenol] | – | 301 | 76 | – | –
C[C@H]1c2cc(F)ccc2-c2ccccc2N1C(=O)c1cc(O)ccc1Br [Example 16, 4-bromo-3-{[(6S)-8-fluoro-6-methylphenanthridin-5(6H)-yl]carbonyl}phenol] | – | 832 | 91 | – | –
COc1cc(C(=O)N2c3ccccc3-c3ccc(F)cc3[C@H]2C)ccc1O [Example 17, 4-{[(6R)-8-fluoro-6-methylphenanthridin-5(6H)-yl]carbonyl}-2-methoxyphenol] | – | 364 | 113 | – | –
CC[C@H]1c2cc(F)ccc2-c2ccccc2N1C(=O)c1ccc(O)cc1 [Example 19, 4-{[(6S)-6-ethyl-8-fluorophenanthridin-5(6H)-yl]carbonyl}phenol] | 103 to 104 | 85 | 88 | – | –
CC[C@@H]1c2cc(F)ccc2-c2ccccc2N1C(=O)c1ccc(O)cc1 [Example 20, 4-{[(6R)-6-ethyl-8-fluorophenanthridin-5(6H)-yl]carbonyl}phenol] | 105 to 106 | 6 | 95 | – | –
C[C@@H]1c2ccccc2-c2ccc(Cl)cc2N1C(=O)c1cccc(O)c1 [Example 25, 3-{[(6R)-3-chloro-6-methylphenanthridin-5(6H)-yl]carbonyl}phenol] | – | 9 | 103 | 141 | 26
C[C@H]1c2ccccc2-c2ccc(Cl)cc2N1C(=O)c1cccc(O)c1 [Example 26, 3-{[(6S)-3-chloro-6-methylphenanthridin-5(6H)-yl]carbonyl}phenol] | – | 377 | 49 | – | –
C[C@H]1c2ccccc2-c2ccc(Cl)cc2N1C(=O)c1ccc(O)cc1 [Example 29, 4-{[(6S)-3-chloro-6-methylphenanthridin-5(6H)-yl]carbonyl}phenol] | 273.7 to 276 | 1000 | 75 | – | –
C[C@@H]1c2ccccc2-c2ccc(Cl)cc2N1C(=O)c1ccc(O)cc1O [Example 31, 4-{[(6R)-3-chloro-6-methylphenanthridin-5(6H)-yl]carbonyl}benzene-1,3-diol] | – | 3 | 87 | – | –
C[C@H]1c2ccccc2-c2ccc(Cl)cc2N1C(=O)c1ccc(O)cc1O [Example 32, 4-{[(6S)-3-chloro-6-methylphenanthridin-5(6H)-yl]carbonyl}benzene-1,3-diol] | – | 789 | 125 | – | –
